In patent US5019574A, “3,4-diaminoquinoline and 3,4-diamino-5,6,7,8-tetrahydroquinoline compounds useful for improving psychoneural function” (Chugai Seiyaku Kabushiki Kaisha, priority 1988, dated 1991):
Read-outs that look alike come from different tables or passages of the source.

Key:
MAO-B = molecular target: T1, MAO-B (Rattus norvegicus, UniProt P19643); assay: Inhibition of monoamine oxidase: MAO-B; type: biochemical, rats (F344/Crj); settings: 10 μM; 5 μM [14C]-2-phenethylamine substrate; None = 100; read-out: Inhibition rate (%) MAO-B
T1 construct: A crude synaptosomal fraction (P2) was obtained from the brain of rats (F344/Crj); from tissue; host or cells: rat (F344/Crj) brain, crude synaptosomal fraction (P2), homogenized
T1 sequence (P19643 1-520): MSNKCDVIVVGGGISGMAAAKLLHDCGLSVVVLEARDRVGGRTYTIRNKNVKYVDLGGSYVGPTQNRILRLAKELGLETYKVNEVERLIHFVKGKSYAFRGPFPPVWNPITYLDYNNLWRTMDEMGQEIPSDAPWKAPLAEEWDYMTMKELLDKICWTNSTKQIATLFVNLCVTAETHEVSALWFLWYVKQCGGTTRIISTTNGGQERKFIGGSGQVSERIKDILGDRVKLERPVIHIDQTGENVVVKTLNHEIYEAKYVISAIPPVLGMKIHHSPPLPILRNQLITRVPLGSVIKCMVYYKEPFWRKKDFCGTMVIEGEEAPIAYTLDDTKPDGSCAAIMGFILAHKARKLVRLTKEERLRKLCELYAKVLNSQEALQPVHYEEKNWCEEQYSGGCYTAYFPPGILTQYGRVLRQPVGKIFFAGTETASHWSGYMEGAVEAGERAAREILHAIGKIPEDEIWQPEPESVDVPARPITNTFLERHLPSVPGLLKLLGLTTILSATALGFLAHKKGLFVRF
Description: (§1) Inhibition of Monoamine Oxidase (MAO):
(§2) A crude synaptosomal fraction (P2) was obtained from the brain of rats (F344/Crj) in the usual manner and homogenized to perform MAO activity measurements. The substrate was 12 μM [^14 C]-serotonin in the case of MAO-A activity measurements, and 5 μM [^14 C]-2-phenethylamine in the case of MAO-B activity measurements. In accordance with the method of R. J. Wurtman and J. Axelrod described in Biochemical Pharmacol. 12, […], 1963, the homogenates were incubated in 100 mM phosphate buffer (pH 7.4) at 37° C. for 20 minutes and the effect of adding selected compounds at a concentration of 10 μM was evaluated.

MAO-A = molecular target: T2, MAO-A (Rattus norvegicus, UniProt P21396); assay: Inhibition of monoamine oxidase: MAO-A; type: biochemical, rats (F344/Crj); settings: 10 μM; 12 μM [14C]-serotonin substrate; None = 100; read-out: Inhibition rate (%) MAO-A
T2 construct: A crude synaptosomal fraction (P2) was obtained from the brain of rats (F344/Crj); from tissue; host or cells: rat (F344/Crj) brain, crude synaptosomal fraction (P2), homogenized
T2 sequence (P21396 1-526): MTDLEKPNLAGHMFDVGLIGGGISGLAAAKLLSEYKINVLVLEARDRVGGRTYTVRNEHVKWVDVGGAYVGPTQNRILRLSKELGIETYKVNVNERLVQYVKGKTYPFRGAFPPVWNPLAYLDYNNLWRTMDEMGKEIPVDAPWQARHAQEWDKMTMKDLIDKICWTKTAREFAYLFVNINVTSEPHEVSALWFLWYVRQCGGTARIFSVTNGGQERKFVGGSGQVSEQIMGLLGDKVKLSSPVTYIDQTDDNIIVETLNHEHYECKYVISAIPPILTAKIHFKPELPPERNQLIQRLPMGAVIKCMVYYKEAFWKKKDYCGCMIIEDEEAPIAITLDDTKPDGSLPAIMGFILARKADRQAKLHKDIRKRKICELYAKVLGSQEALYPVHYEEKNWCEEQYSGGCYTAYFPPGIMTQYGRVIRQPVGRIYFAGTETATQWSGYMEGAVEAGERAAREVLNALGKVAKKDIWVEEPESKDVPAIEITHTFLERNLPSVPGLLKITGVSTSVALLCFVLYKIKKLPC
Description: as §1, §2

[1] = test system: norepinephrine uptake into the synaptosomes; assay: Inhibition of catecholamine uptake: 3H-norepinephrine uptake into synaptosomes; type: biochemical, rats (F344/Crj); settings: 1 μM; norepinephrine uptake in the absence of drug compounds taken as 100
Description: (§3) Inhibition of Catecholamine Uptake:
(§4) A crude synaptosomal fraction (P2) was obtained from the brain of rats (F344/Crj) in the usual manner. In accordance with the method of S. H. Snyder and J. T. Coyle described in Journal of Pharmacology and Experimental Therapeutics, 165(1), 78-86, 1969, the fraction P2 was incubated in a Krebs-Henseleit bicarbonate buffer solution at 37° C. for 10 minutes together with 50 nM ^3 H-norepinephrine (0.25 jμCi). Thereafter, the uptake of norepinephrine into the synaptosomes was measured by the filtration method. Selected compounds were added at a concentration of 1 μM to the solution being incubated and their effect on norepinephrine uptake was examined. The control drug was tetrahydroaminoacridine (THA).
The results are shown in Table 3 in terms of percentage, with norepinephrine uptake in the absence of drug compounds being taken as 100.

male ICR mice = assay: Improvement of memory and learning ability tested by passive avoidance response; type: in vivo; settings: dose 10 (μg/kg i.p.); retention trial 24 hours after acquisition trial
Description: Improvement of memory and Learning Ability Tested by Passive Avoidance Response:
Four groups of male ICR mice (10-14 weeks old). each consisting of 10 animals, were used in the experiment. Except for one control group, the mice were administered with selected compounds of the present invention. The experimental chamber consisted of a light and a dark compartment and an electric current shock source was connected to the floor grid in the dark compartment.
The experimental sessions consisted of acclimation. acquisition, and retention trials and were performed for […], one trial per day. In the acclimation trial, animals were placed in the light compartment of the experimental chamber and left there for 5 minutes to acclimate them to the apparatus. In the acquisition trial which was conducted on the 2nd day, the animals were placed in the light compartment and when they entered the dark compartment, they were confined and given an a.c. electric shock (1 mA) through the floor grid for 10 seconds. In the retention trial which was conducted 24 hours after the acquisition trial, the animals were placed in the light compartment of the chamber and the step-through latency (i.e., the time required for the animals to enter the dark compartment) was measured. A physiological saline solution was administered at the acclimation trial to all of the animals. At the acquisition trial, selected compounds were administered in amounts of 10 μg/kg of body weight (1 ml/100 g). The control group was administered the same amount of physiological saline solution 60 minutes before the start of the trial. All administrations were intraperitoneal.

[2] = test system: uptake of dopamine into synaptosomes; assay: Inhibition of catecholamine uptake: 3H-dopamine uptake into synaptosomes; type: biochemical, rats (F344/Crj); settings: 1 μM; dopamine uptake in the absence of drugs taken as 100
Description: as §4, §3
The uptake of dopamine into synaptosomes was measured by repeating the procedure of Test Example 2 except that 50 nM ^3 H-norepinephrine (0.25 μCi) was replaced by 15 nM ^3 H-dopamine (0.68 μCi). The control drug was tetrahydroaminoacridine (THA). The result is shown in Table 5 in terms of percentage, with dopamine uptake in the absence of drugs being taken as 100.

acetylcholinesterase = molecular target: T3, acetylcholinesterase (Electrophorus electricus, UniProt O42275); assay: Inhibition of acetylcholinesterase activity; type: biochemical; settings: activity without drug compound taken as 100, average of three measurements, read-out: Inhibition rate (%)
T3 construct: purchased Sigma C-2888
Description: Inhibition of Acetylcholinesterase Activity:
Acetylcholinesterase activity was assayed in accordance with the method of S. H. Sterri and F. Fonnum described in European Journal of Biochemistry, 91: 215-222, 1978. The method consisted of incubating 0.5 μU of authentic acetylcholinesterase ([…]) (Sigma, No. C-2888) at 30° C. for 15 minutes in a 20 mM sodium phosphate buffer (pH 7.4). with 1.3 mM [1^-14 C] acetylcholine (0.025 μCi) being used as a substrate. Selected compounds of the general formula (I) were added at a concentration of 1 μM to the reaction solution and the resulting effect on enzymatic activity was evaluated.
The result was obtained as the average of three measurements and shown in Table 2 in terms of percentage, with the activity for the case where no drum compound was added being taken as 100.

male rats (F344) = type: in vivo; settings: p<0.05, n=6, AF64AP-treated rats

T3 sequence (O42275 24-633): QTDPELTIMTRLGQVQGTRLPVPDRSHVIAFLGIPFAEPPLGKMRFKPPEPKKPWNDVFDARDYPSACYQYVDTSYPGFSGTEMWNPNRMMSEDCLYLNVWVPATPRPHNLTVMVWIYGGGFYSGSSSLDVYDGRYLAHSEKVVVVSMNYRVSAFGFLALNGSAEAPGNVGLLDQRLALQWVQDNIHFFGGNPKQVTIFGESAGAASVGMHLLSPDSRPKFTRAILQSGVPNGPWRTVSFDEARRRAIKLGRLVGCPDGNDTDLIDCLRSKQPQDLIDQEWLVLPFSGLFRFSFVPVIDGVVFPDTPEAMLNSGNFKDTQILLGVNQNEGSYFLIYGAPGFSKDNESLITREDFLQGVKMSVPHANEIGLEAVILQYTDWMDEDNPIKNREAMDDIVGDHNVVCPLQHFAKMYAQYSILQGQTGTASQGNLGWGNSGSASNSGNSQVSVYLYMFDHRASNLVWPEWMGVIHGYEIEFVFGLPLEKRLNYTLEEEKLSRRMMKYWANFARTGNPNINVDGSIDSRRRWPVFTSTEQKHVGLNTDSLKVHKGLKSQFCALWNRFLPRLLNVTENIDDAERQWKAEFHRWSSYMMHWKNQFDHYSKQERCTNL

Nc1c(N2CCCCC2)c(C2CCCCC2=O)nc2ccccc12 (centres unmarked) [Compound 7, 4-amino-3-piperidino-2-(2'-oxocyclohexyl)quinoline]
inhibition at 10 µM (MAO-B): 87.5% | inhibition at 10 µM (MAO-A): 58.7% | Inhibition rate (%) [1]: 79.0% | Step through latency (male ICR mice): 104.1 ± 28.5 s | Inhibition rate (%) [2]: 86.4% | inhibition at 1 µM (acetylcholinesterase): 38.1% | number of correct responses vs vehicle control (male rats (F344); 10 mg/kg orally): statistically significant increase in the number of correct responses | number of correct responses vs vehicle control (male rats (F344); 30 mg/kg orally): statistically significant increase in the number of correct responses

Nc1c2c(nc(C3CCCCC3O)c1N1CCCCC1)CCCC2 (centres unmarked) [Compound 9]
inhibition at 10 µM (MAO-B): 89.4% | inhibition at 10 µM (MAO-A): 59.4% | Inhibition rate (%) [1]: 69.4% | Step through latency (male ICR mice): 54.4 ± 7.2 s | Inhibition rate (%) [2]: 78.6% | inhibition at 1 µM (acetylcholinesterase): 38.8%
